These are literature values, as cited in patent US20170165232A1, “THREE-PHASE CONTROLLED-RELEASE TABLET COMPRISING MELATONIN AND PROCESS OF PREPARATION” (Ambros Pharma S.R.L., priority 2010, published 2017).

For the data set the following is noted: in humans.

With `COc1ccc2[nH]cc(CCNC(C)=O)c2c1` [melatonin, N-acetyl-5-methoxytryptamine], the half-life result is given as “about 40 minutes”.
